From PubChem BioAssay (NCI)
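The compound was tested at five concentrations on cells cultured in 96-well plates, with a 48-hour exposure period. GI50 marks 50% less growth. TGI: total growth inhibition.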

What was measured:
Assay in all cases: growth of human tumour cells (NCI), 48 h
PC-3 prostate = test system: PC-3 prostate
SF-539 CNS = test system: SF-539 CNS
HS 578T breast = test system: HS 578T breast
NCI-H23 lung = test system: NCI-H23 lung
SK-MEL-5 melanoma = test system: SK-MEL-5 melanoma
SK-MEL-28 melanoma = test system: SK-MEL-28 melanoma
NCI-H226 lung = test system: NCI-H226 lung
HT29 colon = test system: HT29 colon
COLO 205 colon = test system: COLO 205 colon
786-0 renal = test system: 786-0 renal
SK-MEL-2 melanoma = test system: SK-MEL-2 melanoma
A498 renal = test system: A498 renal
SN12C renal = test system: SN12C renal
SK-OV-3 ovarian = test system: SK-OV-3 ovarian
HL-60(TB) leukemia = test system: HL-60(TB) leukemia
U251 CNS = test system: U251 CNS
HOP-92 NSCLC = test system: HOP-92 NSCLC
DU-145 prostate = test system: DU-145 prostate
EKVX NSCLC = test system: EKVX NSCLC
MOLT-4 leukemia = test system: MOLT-4 leukemia
SNB-75 CNS = test system: SNB-75 CNS
IGROV1 ovarian = test system: IGROV1 ovarian
SNB-19 CNS = test system: SNB-19 CNS
HOP-62 NSCLC = test system: HOP-62 NSCLC
MCF7 breast = test system: MCF7 breast
ACHN renal = test system: ACHN renal
NCI-H460 lung = test system: NCI-H460 lung
CCRF-CEM leukemia = test system: CCRF-CEM leukemia

Q: How did the GI50 (PC-3 prostate) turn out when CN(C)CCNC(=O)c1cc2c3ccccc3[nH]c2c2ncccc12 was run?
A: 9.14 µM

Q: And the TGI (PC-3 prostate)?
A: 34.2 µM

Q: What about the GI50 (SF-539 CNS) of the same molecule?
A: 8.87 µM

Q: And the TGI (SF-539 CNS)?
A: 21.1 µM

Q: And the GI50 (HS 578T breast)?
A: 3.57 µM

Q: And the TGI (HS 578T breast)?
A: 28.1 µM

Q: And the GI50 (NCI-H23 lung)?
A: 11.6 µM

Q: And the TGI (NCI-H23 lung)?
A: 32.6 µM

Q: And the GI50 (SK-MEL-5 melanoma)?
A: 6.05 µM

Q: And the TGI (SK-MEL-5 melanoma)?
A: 20.1 µM

Q: And the GI50 (SK-MEL-28 melanoma)?
A: 15.3 µM

Q: What about the TGI (SK-MEL-28 melanoma) of the same molecule?
A: 29.9 µM

Q: And the GI50 (NCI-H226 lung)?
A: 9.8 µM

Q: What about the TGI (NCI-H226 lung) of the same molecule?
A: 39.6 µM

Q: And the GI50 (HT29 colon)?
A: 5.27 µM

Q: What about the TGI (HT29 colon) of the same molecule?
A: 34.1 µM

Q: And the GI50 (COLO 205 colon)?
A: 2.95 µM

Q: And the TGI (COLO 205 colon)?
A: 16.5 µM

Q: And the GI50 (786-0 renal)?
A: 15.2 µM

Q: What about the TGI (786-0 renal) of the same molecule?
A: 53.5 µM

Q: And the GI50 (SK-MEL-2 melanoma)?
A: 9.15 µM

Q: What about the TGI (SK-MEL-2 melanoma) of the same molecule?
A: 72.5 µM

Q: And the GI50 (A498 renal)?
A: 7.82 µM

Q: What about the TGI (A498 renal) of the same molecule?
A: 21.4 µM

Q: And the GI50 (SN12C renal)?
A: 7.36 µM

Q: What about the TGI (SN12C renal) of the same molecule?
A: 39.2 µM

Q: What about the GI50 (SK-OV-3 ovarian) of the same molecule?
A: 23.5 µM

Q: And the TGI (SK-OV-3 ovarian)?
A: > 100 µM

Q: What about the GI50 (HL-60(TB) leukemia) of the same molecule?
A: 10.2 µM

Q: And the TGI (HL-60(TB) leukemia)?
A: 30 µM

Q: What about the GI50 (U251 CNS) of the same molecule?
A: 12.2 µM

Q: What about the TGI (U251 CNS) of the same molecule?
A: 37 µM

Q: And the GI50 (HOP-92 NSCLC)?
A: 8.01 µM

Q: And the TGI (HOP-92 NSCLC)?
A: 40.6 µM

Q: And the GI50 (DU-145 prostate)?
A: 11.5 µM

Q: What about the TGI (DU-145 prostate) of the same molecule?
A: 30.7 µM

Q: What about the GI50 (EKVX NSCLC) of the same molecule?
A: 7.81 µM

Q: What about the TGI (EKVX NSCLC) of the same molecule?
A: 38.2 µM

Q: And the GI50 (MOLT-4 leukemia)?
A: 3.46 µM

Q: What about the TGI (MOLT-4 leukemia) of the same molecule?
A: 16.5 µM

Q: And the GI50 (SNB-75 CNS)?
A: 5.44 µM

Q: What about the TGI (SNB-75 CNS) of the same molecule?
A: 21.4 µM

Q: What about the GI50 (IGROV1 ovarian) of the same molecule?
A: 1.14 µM

Q: What about the TGI (IGROV1 ovarian) of the same molecule?
A: 19.1 µM

Q: What about the GI50 (SNB-19 CNS) of the same molecule?
A: 14.7 µM

Q: And the TGI (SNB-19 CNS)?
A: 93.2 µM

Q: And the GI50 (HOP-62 NSCLC)?
A: 11.1 µM

Q: What about the TGI (HOP-62 NSCLC) of the same molecule?
A: 37.5 µM

Q: What about the GI50 (MCF7 breast) of the same molecule?
A: 4.53 µM

Q: And the TGI (MCF7 breast)?
A: 20.9 µM

Q: What about the GI50 (ACHN renal) of the same molecule?
A: 4.24 µM

Q: And the TGI (ACHN renal)?
A: 28 µM

Q: What about the GI50 (NCI-H460 lung) of the same molecule?
A: 4.17 µM

Q: What about the TGI (NCI-H460 lung) of the same molecule?
A: 18.4 µM

Q: And the GI50 (CCRF-CEM leukemia)?
A: 3.46 µM

Q: And the TGI (CCRF-CEM leukemia)?
A: 15.8 µM
